Experimental data as given in PMC6120666 (The EMBO Journal, 2018).

Assays:
Assay in all cases: Drug affinity chromatography with c-ponatinib and LC-MS/MS (ponatinib interactome)
Type in all cases: binding
[1] = target: T1, proteins of U2OS cell lysate (Homo sapiens, UniProt P62263)
T1 construct: Proteins enriched by c-ponatinib from U2OS cell lysate; endogenous in cells; host or cells: U2OS cell lysate
Protocol: (§1) Drug affinity chromatography
(§2) U2OS cells were grown until approximately 80% confluent before being pelleted and washed with PBS. Cell pellets were subsequently lysed in buffer A (50 mM Tris pH 7.5, 0.8% v/v NP-40, 5% v/v glycerol, 1.5 mM MgCl2, 100 mM NaCl, 25 mM NaF, 1 mM Na3VO4, 1 mM PMSF, 1mM DTT, 10 μg/mL TLCK, 1 μg/ml Leupeptin, 1 μg/ml Aprotinin, 1 μg/ml soy bean trypsin) and lysates prepared […]
(§3) concentration was determined and lysates stored at -80 °C.
(§4) Briefly, 100 μl of bead slurry (50% in isopropanol) were used for each pulldown experiment. Beads were washed with DMSO (3 × 500 μl), and resuspended in DMSO (50 μl), to which the amine (0.025 μmol) and triethylamine (0.75 μl) were added. The beads were incubated at room temperature for 16 h, and depletion of free amine from the supernatant was determined by LC-MS analysis. Ethanolamine (2.5 μl) was then added to block any unreacted NHS sites, and the beads incubated for a further 16 h. Derivatized beads were then washed with DMSO (3 × 500 μl), buffer A (3 × 1 ml), and incubated with cell lysates (2 mg of protein per pulldown, at 6 […]
(§5) Beads and treated lysates were incubated for 2 h at 4 °C before washing with buffer A (5 ml), Buffer B (50 mM HEPES pH 7.5, 100 mM NaCl, 500 μM EDTA, 2.5 ml), and eluted with formic acid (100 mM, 250 μl). Samples were neutralized with triethylammoniumbicarbonate (TEAB, 1M, 62.5 μl) and stored at -20 °C until preparation for proteomic analysis.
(§6) Samples were reduced with DTT (10 mM final concentration) for 30 min at room temperature, alkylated with iodoacetamide (55 mM final concentration) for 30 min at room temperature, diluted to 300 μl with TEAB, and incubated with trypsin (6 μl, 0.2 mg/ml) overnight at 37 °C. The digests were desalted using SEPAC lite columns (Waters), eluted with 69 % v/v MeCN, 0.1 % v/v FA in H2O (1 ml) and dried in vacuo. Dried peptides were stored at -20 °C before resuspension in 2 % v/v MeCN, 1 % v/v FA in H2O (20 μl) for LC-MS/MS analysis.
(§7) LC-MS/MS data acquisition
(§8) Mass spectrometry data was acquired at the Discovery Proteomics Facility (University of Oxford).
(§9) Digested samples were analyzed by nano-UPLC–MS/MS using a Dionex Ultimate 3000 nano UPLC with EASY spray column (75 μm × 500 mm, 2 μm particle size, Thermo Fisher Scientific) with a 60 min gradient of 0.1 % (v/v) formic acid in 5 % (v/v) DMSO to 0.1 % (v/v) formic acid with 35 % (v/v) acetonitrile in 5 % (v/v) DMSO at a flow rate of approximately 250 nl min−1 (600 bar per 40 °C column temperature). Mass spectrometry data was acquired either with an Orbitrap Q Exactive (Survey scans acquired at a resolution of 70,000 @ 200m/z and the 15 most abundant precursors were selected for HCD fragmentation), or an Orbitrap Q Exactive High Field (HF) instrument (survey scans were […]

[2] = target: T2, proteins of U2OS cell lysate (Homo sapiens, UniProt Q16186)
T2 construct: Proteins enriched by c-ponatinib from U2OS cell lysate; endogenous in cells; host or cells: U2OS cell lysate
Protocol: as §1, §2, §3, §4, §5, §6, §7, §8, §9

[3] = target: T3, proteins of U2OS cell lysate (Homo sapiens, UniProt O75369)
T3 construct: Proteins enriched by c-ponatinib from U2OS cell lysate; endogenous in cells; host or cells: U2OS cell lysate
Protocol: as §1, §2, §3, §4, §5, §6, §7, §8, §9

[4] = target: T4, proteins of U2OS cell lysate (Homo sapiens, UniProt P14618)
T4 construct: Proteins enriched by c-ponatinib from U2OS cell lysate; endogenous in cells; host or cells: U2OS cell lysate
Protocol: as §1, §2, §3, §4, §5, §6, §7, §8, §9

[5] = target: T5, proteins of U2OS cell lysate (Homo sapiens, UniProt P36957)
T5 construct: Proteins enriched by c-ponatinib from U2OS cell lysate; endogenous in cells; host or cells: U2OS cell lysate
Protocol: as §1, §2, §3, §4, §5, §6, §7, §8, §9

[6] = target: T6, proteins of U2OS cell lysate (Homo sapiens, UniProt Q9UBM7)
T6 construct: Proteins enriched by c-ponatinib from U2OS cell lysate; endogenous in cells; host or cells: U2OS cell lysate
Protocol: as §1, §2, §3, §4, §5, §6, §7, §8, §9

[7] = target: T7, proteins of U2OS cell lysate (Homo sapiens, UniProt P39656)
T7 construct: Proteins enriched by c-ponatinib from U2OS cell lysate; endogenous in cells; host or cells: U2OS cell lysate
Protocol: as §1, §2, §3, §4, §5, §6, §7, §8, §9

[8] = target: T8, proteins of U2OS cell lysate (Homo sapiens, UniProt Q12874)
T8 construct: Proteins enriched by c-ponatinib from U2OS cell lysate; endogenous in cells; host or cells: U2OS cell lysate
Protocol: as §1, §2, §3, §4, §5, §6, §7, §8, §9

[9] = target: T9, proteins of U2OS cell lysate (Homo sapiens, UniProt P09619)
T9 construct: Proteins enriched by c-ponatinib from U2OS cell lysate; endogenous in cells; host or cells: U2OS cell lysate
Protocol: as §1, §2, §3, §4, §5, §6, §7, §8, §9

[10] = target: T10, proteins of U2OS cell lysate (Homo sapiens, UniProt P24539)
T10 construct: Proteins enriched by c-ponatinib from U2OS cell lysate; endogenous in cells; host or cells: U2OS cell lysate
Protocol: as §1, §2, §3, §4, §5, §6, §7, §8, §9

[11] = target: T11, proteins of U2OS cell lysate (Homo sapiens, UniProt P25786)
T11 construct: Proteins enriched by c-ponatinib from U2OS cell lysate; endogenous in cells; host or cells: U2OS cell lysate
Protocol: as §1, §2, §3, §4, §5, §6, §7, §8, §9

[12] = target: T12, proteins of U2OS cell lysate (Homo sapiens, UniProt Q99613)
T12 construct: Proteins enriched by c-ponatinib from U2OS cell lysate; endogenous in cells; host or cells: U2OS cell lysate
Protocol: as §1, §2, §3, §4, §5, §6, §7, §8, §9

[13] = target: T13, proteins of U2OS cell lysate (Homo sapiens, UniProt O95373)
T13 construct: Proteins enriched by c-ponatinib from U2OS cell lysate; endogenous in cells; host or cells: U2OS cell lysate
Protocol: as §1, §2, §3, §4, §5, §6, §7, §8, §9

[14] = target: T14, proteins of U2OS cell lysate (Homo sapiens, UniProt Q15393)
T14 construct: Proteins enriched by c-ponatinib from U2OS cell lysate; endogenous in cells; host or cells: U2OS cell lysate
Protocol: as §1, §2, §3, §4, §5, §6, §7, §8, §9

[15] = target: T15, proteins of U2OS cell lysate (Homo sapiens, UniProt Q15459)
T15 construct: Proteins enriched by c-ponatinib from U2OS cell lysate; endogenous in cells; host or cells: U2OS cell lysate
Protocol: as §1, §2, §3, §4, §5, §6, §7, §8, §9

[16] = target: T16, proteins of U2OS cell lysate (Homo sapiens, UniProt P09497)
T16 construct: Proteins enriched by c-ponatinib from U2OS cell lysate; endogenous in cells; host or cells: U2OS cell lysate
Protocol: as §1, §2, §3, §4, §5, §6, §7, §8, §9

[17] = target: T17, proteins of U2OS cell lysate (Homo sapiens, UniProt P06733)
T17 construct: Proteins enriched by c-ponatinib from U2OS cell lysate; endogenous in cells; host or cells: U2OS cell lysate
Protocol: as §1, §2, §3, §4, §5, §6, §7, §8, §9

[18] = target: T18, proteins of U2OS cell lysate (Homo sapiens, UniProt Q13409)
T18 construct: Proteins enriched by c-ponatinib from U2OS cell lysate; endogenous in cells; host or cells: U2OS cell lysate
Protocol: as §1, §2, §3, §4, §5, §6, §7, §8, §9

[19] = target: T19, proteins of U2OS cell lysate (Homo sapiens, UniProt Q9Y262)
T19 construct: Proteins enriched by c-ponatinib from U2OS cell lysate; endogenous in cells; host or cells: U2OS cell lysate
Protocol: as §1, §2, §3, §4, §5, §6, §7, §8, §9

T12 sequence (Q99613 whole entry): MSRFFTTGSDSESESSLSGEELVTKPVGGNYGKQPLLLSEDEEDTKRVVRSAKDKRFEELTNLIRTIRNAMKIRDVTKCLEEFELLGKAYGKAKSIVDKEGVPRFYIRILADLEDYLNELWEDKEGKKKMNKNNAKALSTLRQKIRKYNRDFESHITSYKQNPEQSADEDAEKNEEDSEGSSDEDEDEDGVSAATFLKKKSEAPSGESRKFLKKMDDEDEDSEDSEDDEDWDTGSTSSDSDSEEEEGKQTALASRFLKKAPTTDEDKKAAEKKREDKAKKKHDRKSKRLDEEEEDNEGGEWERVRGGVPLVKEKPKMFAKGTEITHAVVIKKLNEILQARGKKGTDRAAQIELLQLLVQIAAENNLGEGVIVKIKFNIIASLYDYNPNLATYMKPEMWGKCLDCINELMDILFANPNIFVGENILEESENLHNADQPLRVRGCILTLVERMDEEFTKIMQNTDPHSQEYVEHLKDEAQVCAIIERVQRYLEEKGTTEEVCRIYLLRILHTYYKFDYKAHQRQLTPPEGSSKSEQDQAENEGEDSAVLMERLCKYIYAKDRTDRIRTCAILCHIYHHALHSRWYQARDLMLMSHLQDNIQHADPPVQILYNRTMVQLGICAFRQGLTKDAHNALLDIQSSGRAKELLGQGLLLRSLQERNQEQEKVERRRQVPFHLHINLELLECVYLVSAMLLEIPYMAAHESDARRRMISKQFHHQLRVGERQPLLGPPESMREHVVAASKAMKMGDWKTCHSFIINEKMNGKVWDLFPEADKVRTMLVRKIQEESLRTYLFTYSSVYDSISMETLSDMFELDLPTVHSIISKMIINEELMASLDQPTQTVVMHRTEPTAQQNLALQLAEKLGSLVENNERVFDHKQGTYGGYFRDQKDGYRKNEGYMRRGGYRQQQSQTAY
T5 sequence (P36957 68-453): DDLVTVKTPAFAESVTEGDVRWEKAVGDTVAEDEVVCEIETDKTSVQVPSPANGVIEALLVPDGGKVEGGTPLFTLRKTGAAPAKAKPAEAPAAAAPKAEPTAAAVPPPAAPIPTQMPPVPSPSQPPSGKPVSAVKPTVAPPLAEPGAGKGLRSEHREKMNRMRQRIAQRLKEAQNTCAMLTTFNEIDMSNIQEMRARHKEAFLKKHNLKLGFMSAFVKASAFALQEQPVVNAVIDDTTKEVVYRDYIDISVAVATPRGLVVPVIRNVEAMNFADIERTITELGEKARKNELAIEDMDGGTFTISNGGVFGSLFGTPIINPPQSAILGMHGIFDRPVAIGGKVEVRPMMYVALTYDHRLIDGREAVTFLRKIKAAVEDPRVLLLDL
T15 sequence (Q15459 whole entry): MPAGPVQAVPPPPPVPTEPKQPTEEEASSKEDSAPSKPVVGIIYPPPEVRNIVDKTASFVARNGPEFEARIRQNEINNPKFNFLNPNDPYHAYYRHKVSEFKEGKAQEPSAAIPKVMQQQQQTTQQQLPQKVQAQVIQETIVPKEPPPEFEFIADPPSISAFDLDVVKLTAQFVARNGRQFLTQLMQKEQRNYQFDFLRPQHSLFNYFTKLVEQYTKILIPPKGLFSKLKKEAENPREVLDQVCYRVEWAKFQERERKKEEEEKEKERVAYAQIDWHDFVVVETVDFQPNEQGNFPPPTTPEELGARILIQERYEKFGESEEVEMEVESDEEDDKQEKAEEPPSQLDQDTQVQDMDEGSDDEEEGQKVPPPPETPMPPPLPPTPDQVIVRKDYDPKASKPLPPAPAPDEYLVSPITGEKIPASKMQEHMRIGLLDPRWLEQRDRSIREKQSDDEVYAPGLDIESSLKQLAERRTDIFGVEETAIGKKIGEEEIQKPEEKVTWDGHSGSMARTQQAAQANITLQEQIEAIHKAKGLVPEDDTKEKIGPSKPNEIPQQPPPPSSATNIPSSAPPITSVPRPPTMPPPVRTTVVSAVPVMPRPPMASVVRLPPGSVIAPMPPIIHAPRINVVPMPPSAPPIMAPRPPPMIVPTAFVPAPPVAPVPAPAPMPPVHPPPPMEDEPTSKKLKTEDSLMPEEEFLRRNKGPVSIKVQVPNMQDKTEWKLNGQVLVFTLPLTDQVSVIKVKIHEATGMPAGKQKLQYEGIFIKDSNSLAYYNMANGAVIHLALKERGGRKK
T2 sequence (Q16186 whole entry): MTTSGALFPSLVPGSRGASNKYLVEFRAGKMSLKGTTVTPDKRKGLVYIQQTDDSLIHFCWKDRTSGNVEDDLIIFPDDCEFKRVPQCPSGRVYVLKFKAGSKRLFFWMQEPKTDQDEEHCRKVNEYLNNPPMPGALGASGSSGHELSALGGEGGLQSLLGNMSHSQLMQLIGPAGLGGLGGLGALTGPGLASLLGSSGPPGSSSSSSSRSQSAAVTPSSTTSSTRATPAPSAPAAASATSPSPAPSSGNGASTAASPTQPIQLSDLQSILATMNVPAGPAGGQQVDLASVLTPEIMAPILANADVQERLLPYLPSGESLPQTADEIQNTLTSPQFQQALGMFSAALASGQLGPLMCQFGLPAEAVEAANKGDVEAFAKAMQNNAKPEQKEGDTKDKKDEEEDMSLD
T11 sequence (P25786 whole entry): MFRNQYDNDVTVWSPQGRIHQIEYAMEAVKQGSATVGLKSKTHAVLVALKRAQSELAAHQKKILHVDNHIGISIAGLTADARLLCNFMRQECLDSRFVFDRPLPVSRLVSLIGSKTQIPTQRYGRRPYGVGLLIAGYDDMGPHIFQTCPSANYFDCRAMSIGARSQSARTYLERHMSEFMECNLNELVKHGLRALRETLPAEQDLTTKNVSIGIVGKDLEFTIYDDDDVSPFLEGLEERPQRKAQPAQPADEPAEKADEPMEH
T7 sequence (P39656 43-456): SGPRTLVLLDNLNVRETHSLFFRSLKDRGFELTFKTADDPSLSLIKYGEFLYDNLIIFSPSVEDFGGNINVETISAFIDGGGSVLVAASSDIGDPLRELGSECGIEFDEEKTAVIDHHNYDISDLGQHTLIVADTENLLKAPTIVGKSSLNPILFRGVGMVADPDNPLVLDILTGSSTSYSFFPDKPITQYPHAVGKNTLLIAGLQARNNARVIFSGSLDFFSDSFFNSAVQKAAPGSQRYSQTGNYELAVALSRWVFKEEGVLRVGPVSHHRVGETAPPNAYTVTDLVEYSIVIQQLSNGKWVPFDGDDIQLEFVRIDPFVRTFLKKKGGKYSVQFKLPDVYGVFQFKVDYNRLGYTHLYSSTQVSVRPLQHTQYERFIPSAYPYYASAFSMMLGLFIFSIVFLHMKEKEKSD
T6 sequence (Q9UBM7 whole entry): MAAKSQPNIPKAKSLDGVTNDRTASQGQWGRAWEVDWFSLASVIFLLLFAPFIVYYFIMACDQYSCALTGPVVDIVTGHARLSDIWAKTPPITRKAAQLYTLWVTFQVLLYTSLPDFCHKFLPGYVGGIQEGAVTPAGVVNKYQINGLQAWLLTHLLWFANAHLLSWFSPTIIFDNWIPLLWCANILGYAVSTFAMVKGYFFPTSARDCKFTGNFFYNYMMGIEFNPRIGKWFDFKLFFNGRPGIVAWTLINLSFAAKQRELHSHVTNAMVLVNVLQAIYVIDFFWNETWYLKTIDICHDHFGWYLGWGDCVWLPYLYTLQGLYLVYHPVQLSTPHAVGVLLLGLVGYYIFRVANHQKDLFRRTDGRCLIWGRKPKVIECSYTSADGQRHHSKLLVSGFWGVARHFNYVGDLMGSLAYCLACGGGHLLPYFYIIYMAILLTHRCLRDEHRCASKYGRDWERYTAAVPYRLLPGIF
T10 sequence (P24539 43-256): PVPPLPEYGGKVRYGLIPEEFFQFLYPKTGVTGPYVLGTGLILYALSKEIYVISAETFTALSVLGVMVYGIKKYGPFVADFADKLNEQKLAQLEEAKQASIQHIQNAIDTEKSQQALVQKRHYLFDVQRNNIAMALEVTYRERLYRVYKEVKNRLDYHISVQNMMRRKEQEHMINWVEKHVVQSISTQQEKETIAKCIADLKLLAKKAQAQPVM
T13 sequence (O95373 whole entry): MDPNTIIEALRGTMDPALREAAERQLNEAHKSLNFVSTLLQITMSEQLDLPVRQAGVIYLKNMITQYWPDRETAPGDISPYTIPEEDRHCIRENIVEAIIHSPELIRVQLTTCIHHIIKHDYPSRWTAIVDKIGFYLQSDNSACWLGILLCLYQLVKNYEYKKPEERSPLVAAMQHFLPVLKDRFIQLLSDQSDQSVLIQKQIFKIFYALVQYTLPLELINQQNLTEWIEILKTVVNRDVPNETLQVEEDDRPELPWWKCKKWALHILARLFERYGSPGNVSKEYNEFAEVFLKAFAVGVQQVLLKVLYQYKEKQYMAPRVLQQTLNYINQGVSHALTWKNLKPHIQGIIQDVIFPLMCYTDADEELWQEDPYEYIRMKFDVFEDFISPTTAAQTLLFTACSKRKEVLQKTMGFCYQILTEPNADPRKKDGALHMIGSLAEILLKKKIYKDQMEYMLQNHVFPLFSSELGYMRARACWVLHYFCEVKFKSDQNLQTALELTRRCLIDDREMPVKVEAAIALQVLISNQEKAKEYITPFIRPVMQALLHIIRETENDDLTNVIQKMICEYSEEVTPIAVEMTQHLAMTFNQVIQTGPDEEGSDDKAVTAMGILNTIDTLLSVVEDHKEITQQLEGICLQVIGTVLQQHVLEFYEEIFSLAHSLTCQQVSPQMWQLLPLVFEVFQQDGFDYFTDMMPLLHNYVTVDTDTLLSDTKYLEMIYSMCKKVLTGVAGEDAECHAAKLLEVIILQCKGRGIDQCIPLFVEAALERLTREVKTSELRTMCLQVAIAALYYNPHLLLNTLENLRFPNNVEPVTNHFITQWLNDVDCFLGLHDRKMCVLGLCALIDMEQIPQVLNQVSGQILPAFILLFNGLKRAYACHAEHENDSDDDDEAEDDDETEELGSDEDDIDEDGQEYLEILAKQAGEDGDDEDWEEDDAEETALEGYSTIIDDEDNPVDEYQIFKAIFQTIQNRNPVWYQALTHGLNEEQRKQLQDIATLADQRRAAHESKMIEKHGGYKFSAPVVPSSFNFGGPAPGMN

Cc1ccc(C(=O)Nc2ccc(CN3CCN(CCCN)CC3)c(C(F)(F)F)c2)cc1C#Cc1cnc2cccnn12 [c-ponatinib, reference compound]
Average LFQ intensity ([1]; captured protein RPS14, Rank 169): 22.2776
Average LFQ intensity ([2]; captured protein ADRM1, Rank 178): 22.2159
Average LFQ intensity ([3]; captured protein FLNB, Rank 198): 21.8609
Average LFQ intensity ([4]; captured protein PKM, Rank 224): 21.567
Average LFQ intensity ([5]; captured protein DLST, Rank 218): 21.6592
Average LFQ intensity ([6]; captured protein DHCR7, Rank 220): 21.6093
Average LFQ intensity ([7]; captured protein DDOST, Rank 129): 22.9075
Average LFQ intensity ([8]; captured protein SF3A3, Rank 228): 21.5172
Average LFQ intensity ([9]; captured protein PDGFRB, Rank 168): 22.3008
Average LFQ intensity ([10]; captured protein ATP5F1, Rank 144): 22.7408
Average LFQ intensity ([11]; captured protein PSMA1, Rank 138): 22.7928
Average LFQ intensity ([12]; captured protein EIF3C;EIF3CL, Rank 191): 21.9967
Average LFQ intensity ([13]; captured protein IPO7, Rank 116): 23.1828
Average LFQ intensity ([14]; captured protein SF3B3, Rank 141): 22.7469
Average LFQ intensity ([15]; captured protein SF3A1, Rank 193): 21.9763
Average LFQ intensity ([16]; captured protein CLTB, Rank 157): 22.5074
Average LFQ intensity ([17]; captured protein ENO1, Rank 190): 21.9992
Average LFQ intensity ([18]; captured protein DYNC1I2, Rank 179): 22.2038
Average LFQ intensity ([19]; captured protein EIF3L, Rank 130): 22.8981

Cc1ccc(C(=O)Nc2ccc(CN3CCN(C)CC3)c(C(F)(F)F)c2)cc1C#Cc1cnc2cccnn12 [PON]
Average LFQ PON_WT ([1]; RPS14, 40S ribosomal protein S14): 22.2776
Average LFQ PON_WT ([2]; ADRM1, Proteasomal ubiquitin receptor ADRM1): 22.2159
Average LFQ PON_WT ([3]; FLNB, Filamin-B): 21.8609
Average LFQ PON_WT ([4]; PKM, Pyruvate kinase PKM): 21.567
Average LFQ PON_WT ([5]; DLST, Dihydrolipoyllysine-residue succinyltransferase component of 2-oxoglutarate dehydrogenase complex, mitochondrial): 21.6592
Average LFQ PON_WT ([6]; DHCR7, 7-dehydrocholesterol reductase): 21.6093
Average LFQ PON_WT ([7]; DDOST, Dolichyl-diphosphooligosaccharide--protein glycosyltransferase 48 kDa subunit): 22.9075
Average LFQ PON_WT ([8]; SF3A3, Splicing factor 3A subunit 3): 21.5172
Average LFQ PON_WT ([9]; PDGFRB, Platelet-derived growth factor receptor beta): 22.3008
Average LFQ PON_WT ([10]; ATP5F1, ATP synthase subunit b, mitochondrial): 22.7408
Average LFQ PON_WT ([11]; PSMA1, Proteasome subunit alpha type-1): 22.7928
Average LFQ PON_WT ([12]; EIF3C;EIF3CL, Eukaryotic translation initiation factor 3 subunit C): 21.9967
Average LFQ PON_WT ([13]; IPO7, Importin-7): 23.1828
Average LFQ PON_WT ([14]; SF3B3, Splicing factor 3B subunit 3): 22.7469
Average LFQ PON_WT ([15]; SF3A1, Splicing factor 3A subunit 1): 21.9763
Average LFQ PON_WT ([16]; CLTB, Clathrin light chain B): 22.5074
Average LFQ PON_WT ([17]; ENO1, Alpha-enolase): 21.9992
Average LFQ PON_WT ([18]; DYNC1I2, Cytoplasmic dynein 1 intermediate chain 2): 22.2038
Average LFQ PON_WT ([19]; EIF3L, Eukaryotic translation initiation factor 3 subunit L): 22.8981
